This note sets out measurements from patent US20250368633A1, “AZEPINE FUSED RING COMPOUND AS RIPK1 INHIBITOR AND USE THEREOF” (ARTIVILA BIOPHARMA, priority 2022, published 2025).

What is called pEC50 is the negative decadic logarithm of the EC50, by convention in mol/L.

The test system of test [1] is U937 cells. The test can be described thus: Inhibition rate of compound (1 μM) on necroptosis of U937 cells (TSZ-induced, CellTiter-Glo). Format: cell-based. The following applies: TSZ (hTNF-α, SM-164, Z-VAD-FMK) 20 hours. An outline of the steps: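 U937 cells were pretreated 15 min with compound, then necroptosis was triggered with TSZ (Z-VAD-FMK, hTNF-α, SM-164) for 20 h at 37° C. Viability was read as ATP by CellTiter-Glo luminescence, and inhibition (%) was taken relative to no-TSZ and TSZ-only wells.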
Background: ATP-based viability assays read luminescence as a measure of living cells.

Test [2] relates to U937 cells. The test can be described thus: EC50 of necroptosis inhibition in U937 cells (TSZ-induced, CellTiter-Glo). Format: cell-based. The following applies: Homo sapiens, U-937; TSZ (hTNF-α, SM-164, Z-VAD-FMK) 20 hours; 10 concentration points; read-out: EC50 intervals of necroptosis inhibition in U937 cells. Put shortly:
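U937 cells pretreated 15 min with compound (10-point, 1:3 series), then necroptosis induced by TSZ (hTNF-α, SM-164, Z-VAD-FMK) for 20 h at 37 °C. Viability measured as ATP by CellTiter-Glo luminescence; inhibition normalised to untreated and TSZ-only wells, EC50 from four-parameter fit.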

pEC50: −log10 of the molar value.

On to `CC(Cc1ccccc1)NC(=O)C(=O)N[C@H]1COc2ccc(C#CCCO)cc2N(C)C1=O` (mixture of isomers) [Example 37, N^1-((S)-7-(4-hydroxybut-1-yn-1-yl)-5-methyl-4-oxo-2,3,4,5-tetrahydrobenzo[b][1,4]oxazepin-3-yl)-N^2-(1-phenylpropan-2-yl)oxalamide], for which the “Inhibition rate range of compounds (1 μM) on U937 cell necroptosis” value (from here on “Inhibition rate range of compounds”) in the test with U937 cells [1] is on record as “A (A: ≥90%)”. Also, in the test with U937 cells [2], the pEC50 is 6.30 to 7.00.

For the compound `CC(NC(=O)C(=O)N[C@H]1COc2ccc(C#CCCO)cc2N(C)C1=O)c1ccccc1` (mixture of isomers) [Example 41, N^1-((S)-7-(4-hydroxybut-1-yn-1-yl)-5-methyl-4-oxo-2,3,4,5-tetrahydrobenzo[b][1,4]oxazepin-3-yl)-N^2-(1-phenylethyl)oxalamide], the “Inhibition rate range of compounds” value in the test on U937 cells [1] was “A (A: ≥90%)”. Further, in the test on U937 cells [2], the pEC50 was greater than 7.00.

Take `CN1CCC(CC#Cc2ccc3c(c2)N(C)C(=O)[C@@H](NC(=O)C(=O)NCCc2ccccc2)CO3)C1=O` (mixture of isomers) [Example 82, N^1-((3S)-5-methyl-7-(3-(1-methyl-2-oxopyrrolidin-3-yl)prop-1-yn-1-yl)-4-oxo-2,3,4,5-tetrahydrobenzo[b][1,4]oxazepin-3-yl)-N^2-phenethyloxalamide]: the “Inhibition rate range of compounds” value with U937 cells [1] was “A (A: ≥90%)”. Besides, the negative logarithm of the EC50 (pEC50) with U937 cells [2] was greater than 7.00.

Regarding `CN1C(=O)[C@@H](NC(=O)C(=O)NCCc2cccc(F)c2)COc2ccc(C#CCN3CCC(O)C3)cc21` (mixture of isomers) [Example 113, N^1-(3-fluorophenethyl)-N^2-((3S)-7-(3-(3-hydroxypyrrolidin-1-yl)prop-1-yn-1-yl)-5-methyl-4-oxo-2,3,4,5-tetrahydrobenzo[b][1,4]oxazepin-3-yl)oxalamide], in the test with U937 cells [1], the “Inhibition rate range of compounds” value is on record as “A (A: ≥90%)”. Further, the pEC50 with U937 cells [2] is greater than 7.00.

Regarding `C[C@@H](NC(=O)C(=O)N[C@H]1COc2ccc(C#CCN3CCC(O)C3)cc2N(C)C1=O)c1ccccc1` (mixture of isomers) [Example 126, N^1-((3S)-7-(3-(3-hydroxypyrrolidin-1-yl)prop-1-yn-1-yl)-5-methyl-4-oxo-2,3,4,5-tetrahydrobenzo[b][1,4]oxazepin-3-yl)-N^2-((R)-1-phenylethyl)oxalamide], in the test on U937 cells [1], the “Inhibition rate range of compounds” value is “A (A: ≥90%)”. For the same compound, in the test on U937 cells [2], the pEC50 was greater than 7.00.

As to `CC(CNC(=O)C(=O)N[C@H]1COc2ccc(C#CCCO)cc2N(C)C1=O)c1ccccc1` (mixture of isomers) [Example 154, N^1-((S)-7-(4-hydroxybut-1-yn-1-yl)-5-methyl-4-oxo-2,3,4,5-tetrahydrobenzo[b][1,4]oxazepin-3-yl)-N^2-(2-phenylpropyl)oxalamide], in the test with U937 cells [1], the “Inhibition rate range of compounds” value is “A (A: ≥90%)”. Further, the pEC50 in the test on U937 cells [2] is greater than 7.00.

For the compound `CN1C(=O)[C@@H](NC(=O)C(=O)NCCc2ccccc2)COc2ccc(C#Cc3cccnc3)cc21` [Example 13, (S)—N^1-(5-methyl-4-oxo-7-(pyridin-3-ylethynyl)-2,3,4,5-tetrahydrobenzo[b][1,4]oxazepin-3-yl)-N^2-phenethyloxalamide], the “Inhibition rate range of compounds” value with U937 cells [1] was “A (A: ≥90%)”. Further, the pEC50 in the test with U937 cells [2] was greater than 7.00.

Turning to `CN1C(=O)[C@@H](NC(=O)C(=O)NCCc2ccccc2)COc2ccc(C#Cc3ccsc3)cc21` [Example 17, (S)—N^1-(5-methyl-4-oxo-7-(thiophen-3-ylethynyl)-2,3,4,5-tetrahydrobenzo[b][1,4]oxazepin-3-yl)-N^2-phenethyloxalamide], the “Inhibition rate range of compounds” value with U937 cells [1] is “A (A: ≥90%)”. The pEC50 with U937 cells [2] was greater than 7.00.

`CN1C(=O)[C@@H](NC(=O)C(=O)NCCc2ccccc2)COc2ccc(C#C[Si](C)(C)C)cc21` [Example 18, (S)—N^1-(5-methyl-4-oxo-7-((trimethylsilyl)ethynyl)-2,3,4,5-tetrahydrobenzo[b][1,4]oxazepin-3-yl)-N^2-phenethyloxalamide]: the “Inhibition rate range of compounds” value with U937 cells [1] is “A (A: ≥90%)”. Also, in the test with U937 cells [2], the pEC50 is greater than 7.00.

Consider `CC#Cc1ccc2c(c1)N(C)C(=O)[C@@H](NC(=O)C(=O)NCCc1ccccc1)CO2` [Example 19, (S)—N^1-(5-methyl-4-oxo-7-(prop-1-yn-1-yl)-2,3,4,5-tetrahydrobenzo[b][1,4]oxazepin-3-yl)-N^2-phenethyloxalamide], for which the “Inhibition rate range of compounds” value with U937 cells [1] is recorded as “A (A: ≥90%)”. Further, the pEC50 in the test with U937 cells [2] was greater than 7.00.

For `CN1C(=O)[C@@H](NC(=O)C(=O)NCCc2ccccc2)COc2ccc(C#CC3CCOCC3)cc21` [Example 21, (S)—N^1-(5-methyl-4-oxo-7-((tetrahydro-2H-pyran-4-yl)ethynyl)-2,3,4,5-tetrahydrobenzo[b][1,4]oxazepin-3-yl)-N^2-phenethyloxalamide], in the test on U937 cells [1], the “Inhibition rate range of compounds” value is given as “A (A: ≥90%)”. Besides, the pEC50 with U937 cells [2] was greater than 7.00.

Take `CN1C(=O)[C@@H](NC(=O)C(=O)NCCc2ccccc2)COc2ccc(C#Cc3cnn(C)c3)cc21` [Example 22, (S)—N^1-(5-methyl-7-((1-methyl-1H-pyrazol-4-yl)ethynyl)-4-oxo-2,3,4,5-tetrahydrobenzo[b][1,4]oxazepin-3-yl)-N^2-phenethyloxalamide]: the “Inhibition rate range of compounds” value with U937 cells [1] is recorded as “B (B: 50-89%)”. The pEC50 with U937 cells [2] was greater than 7.00.

`CN1C(=O)[C@@H](NC(=O)C(=O)NCCc2ccccc2)COc2ccc(C#CC3CCCNC3)cc21` (stereo partly drawn) [Example 24, N^1-((3S)-5-methyl-4-oxo-7-(piperidin-3-ylethynyl)-2,3,4,5-tetrahydrobenzo[b][1,4]oxazepin-3-yl)-N^2-phenethyloxalamide]: in the test with U937 cells [1], the “Inhibition rate range of compounds” value is given as “A (A: ≥90%)”. For the same compound, the pEC50 in the test on U937 cells [2] was greater than 7.00.

Regarding `CN1C(=O)[C@@H](NC(=O)C(=O)NCCc2ccccc2)COc2ccc(C#Cc3cnc4cccnn34)cc21` [Example 25, (S)—N^1-(7-(imidazo[1,2-b]pyridazin-3-ylethynyl)-5-methyl-4-oxo-2,3,4,5-tetrahydrobenzo[b][1,4]oxazepin-3-yl)-N^2-phenethyloxalamide], the “Inhibition rate range of compounds” value in the test on U937 cells [1] is given as “A (A: ≥90%)”. For the same compound, the negative-log EC50 (pEC50) with U937 cells [2] is greater than 7.00.

For the compound `CN1C(=O)[C@@H](NC(=O)C(=O)NCCc2ccccc2)COc2ccc(C#CC(C)(C)O)cc21` [Example 29, (S)—N^1-(7-(3-hydroxy-3-methylbut-1-yn-1-yl)-5-methyl-4-oxo-2,3,4,5-tetrahydrobenzo[b][1,4]oxazepin-3-yl)-N^2-phenethyloxalamide], the “Inhibition rate range of compounds” value with U937 cells [1] was “A (A: ≥90%)”. In addition, the pEC50 in the test on U937 cells [2] was greater than 7.00.

As for `CN1C(=O)[C@@H](NC(=O)C(=O)NCCc2ccccc2)COc2ccc(C#CCCO)cc21` [Example 31, (S)—N^1-(7-(4-hydroxybut-1-yn-1-yl)-5-methyl-4-oxo-2,3,4,5-tetrahydrobenzo[b][1,4]oxazepin-3-yl)-N^2-phenethyloxalamide], in the test with U937 cells [1], the “Inhibition rate range of compounds” value is given as “A (A: ≥90%)”. Besides, the pEC50 in the test with U937 cells [2] was greater than 7.00.

Take `CN1C(=O)[C@@H](NC(=O)C(=O)NCc2ccccc2)COc2ccc(C#CCCO)cc21` [Example 32, (S)—N^1-benzyl-N^2-(7-(4-hydroxybut-1-yn-1-yl)-5-methyl-4-oxo-2,3,4,5-tetrahydrobenzo[b][1,4]oxazepin-3-yl)oxalamide]: in the test with U937 cells [1], the “Inhibition rate range of compounds” value is “A (A: ≥90%)”. Besides, in the test on U937 cells [2], the pEC50 is greater than 7.00.

As for `CN1C(=O)[C@@H](NC(=O)C(=O)NCCc2ccccc2F)COc2ccc(C#CCCO)cc21` [Example 33, (S)—N^1-(2-fluorophenethyl)-N^2-(7-(4-hydroxybut-1-yn-1-yl)-5-methyl-4-oxo-2,3,4,5-tetrahydrobenzo[b][1,4]oxazepin-3-yl)oxalamide], the “Inhibition rate range of compounds” value in the test with U937 cells [1] was “A (A: ≥90%)”. The negative-log EC50 (pEC50) with U937 cells [2] is greater than 7.00.

`CN1C(=O)[C@@H](NC(=O)C(=O)NCCc2cccc(F)c2)COc2ccc(C#CCCO)cc21` [Example 34, (S)—N^1-(3-fluorophenethyl)-N^2-(7-(4-hydroxybut-1-yn-1-yl)-5-methyl-4-oxo-2,3,4,5-tetrahydrobenzo[b][1,4]oxazepin-3-yl)oxalamide]: the “Inhibition rate range of compounds” value in the test on U937 cells [1] is “A (A: ≥90%)”. Moreover, in the test on U937 cells [2], the negative logarithm of the EC50 (pEC50) was greater than 7.00.

In the case of `CN1C(=O)[C@@H](NC(=O)C(=O)NCCc2ccc(F)cc2)COc2ccc(C#CCCO)cc21` [Example 35, (S)—N^1-(4-fluorophenethyl)-N^2-(7-(4-hydroxybut-1-yn-1-yl)-5-methyl-4-oxo-2,3,4,5-tetrahydrobenzo[b][1,4]oxazepin-3-yl)oxalamide], in the test on U937 cells [1], the “Inhibition rate range of compounds” value is “A (A: ≥90%)”. In addition, the pEC50 with U937 cells [2] was 6.30 to 7.00.

On to `CN1C(=O)[C@@H](NC(=O)C(=O)NCCc2cc(F)cc(F)c2)COc2ccc(C#CCCO)cc21` [Example 36, (S)—N^1-(3,5-difluorophenethyl)-N^2-(7-(4-hydroxybut-1-yn-1-yl)-5-methyl-4-oxo-2,3,4,5-tetrahydrobenzo[b][1,4]oxazepin-3-yl)oxalamide], for which the “Inhibition rate range of compounds” value with U937 cells [1] is reported as “A (A: ≥90%)”. Besides, in the test on U937 cells [2], the negative logarithm of the EC50 (pEC50) was greater than 7.00.

Turning to `CN1C(=O)[C@@H](NC(=O)C(=O)NCc2cccc(F)c2)COc2ccc(C#CCCO)cc21` [Example 39, (S)—N^1-(3-fluorobenzyl)-N^2-(7-(4-hydroxybut-1-yn-1-yl)-5-methyl-4-oxo-2,3,4,5-tetrahydrobenzo[b][1,4]oxazepin-3-yl)oxalamide], the “Inhibition rate range of compounds” value in the test on U937 cells [1] is “A (A: ≥90%)”. Moreover, the pEC50 in the test with U937 cells [2] was 6.30 to 7.00.
